In patent publication US5627271A, “Glycolipids, their preparation and use” (Genzyme Limited, priority 1992, dated 1997):
Where “and” joins values, the source holds several entries; their conditions need not be identical. Equal entries are not always repeated. Blank lines part the entries; values can stand above or below the compound they belong to.

Legend:
galactosyltransferase = assay: Test as substrate for galactosyltransferase; format: biochemical, bovine; settings: with and without the detergent Triton CF-54
Procedure: Compound (28): The acceptor (27) (16.5 mg, 31.2 μmol) was sonicated carefully for 15 min in 39 μl of 40 mM MnCl2, 93 μl of 50 mM NaN3, 102 μl and 330 μl of sodium cacodylate buffer pH 7.4 100 mM and 50 mM respectively. Then 35 μl of 2% BSA, 5.5 μl (5.5 U) of 1 U/μl calf intestinal alkaline phosphatase, 143 μl (1.92 U) of 6.7 U/500 μl UDP-Glc 4--epimerase, 29 μl (487 mU) of 8.4 U/500 μl galactosyl-transferase and 21.9 mg (37.9 μmol, 1.2 eq.) of UDP-Glc were added. The final concentrations were as follows: [Acceptor]=40 mM, [UDP-Glc]=49 mM, [MnCl2 ]=2 mM, [NAN3 ]=6 mM, [Sodium cacodylate]=50 mM.
The GlcNAc ceramide (40) has been tested as a substrate for the galactosyltransferase with and without the addition of the detergent Triton CF-54. No conversion was obtained.

[1] = target: T1, α1-3 fucosyl transferase VI (Homo sapiens, UniProt P51993); assay: Test as substrate for α1-3 fucosyl transferase VI with radio-labelled GDP-[14C]fucose; format: biochemical; settings: for Competition for incorporation of fucose into lipid (acceptor quality): 0.2 mM (28) with 0 to 2 mM N-acetyllactosamine; for Percentage of fucose transferred: 0.5 mU fucosyl transferase, 1 hour
T1 sequence (P51993 1-359): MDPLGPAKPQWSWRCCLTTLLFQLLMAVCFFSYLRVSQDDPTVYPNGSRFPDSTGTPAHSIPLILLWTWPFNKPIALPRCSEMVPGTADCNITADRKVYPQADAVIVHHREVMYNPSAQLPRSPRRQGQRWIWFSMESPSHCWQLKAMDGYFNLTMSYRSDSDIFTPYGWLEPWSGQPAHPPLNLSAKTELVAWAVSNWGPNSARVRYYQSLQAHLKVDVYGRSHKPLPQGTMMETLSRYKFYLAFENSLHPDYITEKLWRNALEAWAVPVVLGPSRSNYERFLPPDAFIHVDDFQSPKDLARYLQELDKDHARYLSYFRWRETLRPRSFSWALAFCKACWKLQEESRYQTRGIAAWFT
Procedure: The acceptor (28) was tested as a substrate for α1-3 fucosyl transferase VI, by incubation with the enzyme and radio-labelled GDP-[^14 C]fucose. The reaction conditions were: 45 mM Mes pH 6.5; 27 μM GDP-Fuc; 0.1% BSA; 0.1 mM NaCl; 5 mM MnCl2; 5 mM MgCl2; incubation at 37° C.). The reaction mixture was passed through a Sep-Pak C18 cartridge which was washed with 0.2M NaCl to ensure separation of all hydrophilic material. The lipid fraction was then eluted with MeOH. The incorporation of radioactivity into lipids was measured by scintillation counting.
In a first experiment, the transfer was monitored with time, using 0.2 mM (28) and 0.1 mU fucosyltransferase/100 μl incubation, and compared to a control incubation containing no acceptor. […] In a further experiment, but using 0.5 mU fucosyl transferase over 1 hour, the transfer of fucose was measured at 0.2, 1, 5 and 24 mM concentrations of (28). The percentage of fucose transferred was respectively about 50%, 60%, 65% and 70%.
Competition experiments were also carried out, using 0.2 mM acceptor (28), in the presence of various concentrations (0 to 2 mM) of N-acetyllactosamine which is a known substrate for the enzyme. The samples were analysed as before, for incorporation of fucose into lipid.

α2-6 sialyltransferase = target: T2, α2-6 sialyltransferase (Rattus norvegicus, UniProt P13721); assay: Incorporation of radio-labelled CMP-NANA into glycolipid acceptors by α2-6 sialyltransferase; format: biochemical
T2 construct: (from porcine and rat liver); from tissue; host or cells: rat liver
T2 sequence (P13721 1-403): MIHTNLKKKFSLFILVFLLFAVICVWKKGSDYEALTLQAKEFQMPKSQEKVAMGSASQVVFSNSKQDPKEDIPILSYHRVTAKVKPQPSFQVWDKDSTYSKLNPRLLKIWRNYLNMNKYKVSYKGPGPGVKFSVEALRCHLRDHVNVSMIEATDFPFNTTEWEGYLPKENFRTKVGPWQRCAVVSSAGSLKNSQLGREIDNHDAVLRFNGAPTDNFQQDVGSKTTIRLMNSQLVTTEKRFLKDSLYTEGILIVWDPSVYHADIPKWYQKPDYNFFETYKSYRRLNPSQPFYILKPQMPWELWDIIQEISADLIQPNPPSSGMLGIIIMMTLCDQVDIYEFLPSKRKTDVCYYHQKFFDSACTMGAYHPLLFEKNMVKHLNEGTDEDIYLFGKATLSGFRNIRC
Procedure: (§1) Various glycolipids have been incubated with α2-3 and α2-6 sialyltransferases (from porcine and rat liver) in the presence of radio-labelled CMP-NANA. […] Other glycolipids could accept NANA, but in relatively low yields.

α2-3 sialyltransferase = target: T3, α2-3 sialyltransferase (Sus scrofa, UniProt Q02745); assay: Incorporation of radio-labelled CMP-NANA into glycolipid acceptors by α2-3 sialyltransferase; format: biochemical, porcine
T3 construct: from porcine liver; from tissue; host or cells: porcine liver
T3 sequence (Q02745 1-343): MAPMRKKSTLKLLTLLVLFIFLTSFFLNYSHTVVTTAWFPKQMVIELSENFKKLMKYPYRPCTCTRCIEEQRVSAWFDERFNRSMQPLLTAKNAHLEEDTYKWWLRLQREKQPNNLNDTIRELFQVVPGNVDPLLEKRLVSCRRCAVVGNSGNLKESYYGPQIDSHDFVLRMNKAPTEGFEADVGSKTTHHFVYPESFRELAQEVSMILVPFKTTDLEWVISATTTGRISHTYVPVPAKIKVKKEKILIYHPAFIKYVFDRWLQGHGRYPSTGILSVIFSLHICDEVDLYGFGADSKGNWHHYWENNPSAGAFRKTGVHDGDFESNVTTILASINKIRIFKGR
Procedure: as §1
However, this transferase should be able to use glycolipid (54) as an acceptor.

[2] = acceptor conc. 12 mM, bracketed numbers are background

SMILES: CCCCCCCCCCCCC/C=C/[C@@H](O)[C@H](CO[C@@H]1O[C@H](CO)[C@@H](O)[C@H](O)[C@H]1NC(C)=O)N=[N+]=[N-] [(27)]
Conversion (galactosylation) by galactosyltransferase (galactosyltransferase): galactosylated

SMILES: CCCCCCCCCCCCC/C=C/[C@@H](O)[C@H](CO[C@@H]1O[C@H](CO)[C@@H](O[C@@H]2O[C@H](CO)[C@H](O)[C@H](O)[C@H]2O)[C@H](O)[C@H]1O)N=[N+]=[N-] [(20)]
α2-6 ST yield (%) of incorporation of radio-labelled CMP-NANA (α2-6 sialyltransferase; [2]): 2.9% and 2.8%
α2-3ST yield (%) of incorporation of radio-labelled CMP-NANA (α2-3 sialyltransferase; acceptor conc. 100 mM): 2.5%

SMILES: CCCCCCCCCCCCC/C=C/[C@@H](O)[C@@H](N)CO[C@@H]1O[C@H](CO)[C@@H](O[C@@H]2O[C@H](CO)[C@H](O)[C@H](O)[C@H]2O)[C@H](O)[C@H]1O [(1)]
α2-3ST yield (%) of incorporation of radio-labelled CMP-NANA (α2-3 sialyltransferase; acceptor conc. 12 mM): 1.5%
α2-3ST yield (%) of incorporation of radio-labelled CMP-NANA (α2-3 sialyltransferase; acceptor conc. 100 mM): 2.4% and 2.5%

Continued, in another order:

Conversion (galactosylation) by galactosyltransferase (galactosyltransferase): No conversion
SMILES: CCCCCCCCCCCCC/C=C/[C@@H](O)[C@H](CO[C@@H]1O[C@H](CO)[C@@H](O)[C@H](O)[C@H]1NC(C)=O)NC(=O)CCCCCCCCCCCCCCCCCCCCCCC [(40), GlcNAc ceramide]

Competition for incorporation of fucose into lipid (acceptor quality) [1]: similarly good acceptors
SMILES: CC(=O)N[C@H]1C(O)O[C@H](CO)[C@@H](O[C@@H]2O[C@H](CO)[C@H](O)[C@H](O)[C@H]2O)[C@@H]1O (stereo partly drawn) [N-acetyllactosamine, reference compound]

α2-6 ST yield (%) of incorporation of radio-labelled CMP-NANA (α2-6 sialyltransferase; acceptor conc. 43 mM): 2.7%
Transfer by α2-3 sialyltransferase / acceptor substrate (in words) (α2-3 sialyltransferase; α2-3 sialyltransferase from porcine liver): not an acceptor substrate
SMILES: CCCCCCCCCCCCC/C=C/[C@@H](O)[C@H](CO[C@@H]1O[C@H](CO)[C@@H](O[C@@H]2O[C@H](CO)[C@H](O)[C@H](O)[C@H]2O)[C@H](O)[C@H]1O)NC(=O)CCCCCCCCCCCCCCCCC [lactosyl-ceramide, Lactosylceramide, reference compound]

α2-6 ST yield (%) of incorporation of radio-labelled CMP-NANA (α2-6 sialyltransferase; acceptor conc. 6 mM, bracketed numbers are background): 22.2%
α2-6 ST yield (%) of incorporation of radio-labelled CMP-NANA (α2-6 sialyltransferase; [2]): 23.2%
α2-6 ST yield (%) of incorporation of radio-labelled CMP-NANA (α2-6 sialyltransferase; acceptor conc. 50 mM, bracketed numbers are background): 47.0%
α2-6 ST yield (%) of incorporation of radio-labelled CMP-NANA (α2-6 sialyltransferase; acceptor conc. 100 mM, bracketed numbers are background): 59.8%
α2-3ST yield (%) of incorporation of radio-labelled CMP-NANA (α2-3 sialyltransferase; acceptor conc. 6 mM): 1.1%
α2-3ST yield (%) of incorporation of radio-labelled CMP-NANA (α2-3 sialyltransferase; acceptor conc. 100 mM): 1.5% and 1.2%
Competition for incorporation of fucose into lipid (acceptor quality) [1]: similarly good acceptors
Percentage of fucose transferred ([1]; 0.2 mM acceptor): about 50%
Percentage of fucose transferred ([1]; 1 mM acceptor): ~60%
Percentage of fucose transferred ([1]; 5 mM acceptor): ~65%
Percentage of fucose transferred ([1]; 24 mM acceptor): ~70%
SMILES: CCCCCCCCCCCCC/C=C/[C@@H](O)[C@H](CO[C@@H]1O[C@H](CO)[C@@H](O[C@@H]2O[C@H](CO)[C@H](O)[C@H](O)[C@H]2O)[C@H](O)[C@H]1NC(C)=O)N=[N+]=[N-] [(28)]
Incorporation of label into lipid monitored with time ([1]; 0.2 mM acceptor, 0.1 mU fucosyltransferase/100 μl, vs control without acceptor): incorporation of label into lipid above background
